Results: US20070276011A1, “Plasminogen Activator Inhibitor-1 Inhibitor” (priority 2003, published 2007)

Biological target: recombinant human PAI-1 (Homo sapiens, UniProt P05121)
Assay: PAI-1 inhibitory activity, Test Method A (tPA fluorogenic substrate, Tris buffer pH8.0, 37 C)
Assay type: biochemical
Conditions: Test Method A
Experimental: To this solution, 50 μL solution of 400 μM fluogenic substrate for tPA (Pyr-Gly-Arg-MCA, Peptide Institute, Inc.) adjusted with the same buffer was added, and reacted for 30 minutes at 37° C. The reaction was stopped by adding 50 μL of 2% acetic acid. Fluorescence was measured at the excitation wavelength=360 nm, emission wavelength=460 or 465 nm using a microplate reader (SPECTRAFLUOR or GENios) by TECAN. The fluorescence intensities in the presence of the PAI-1 as the control (DMSO) or in the absence of the PAI-1 (tPA alone) were taken as 100% and 0% of PAI-1 activities, respectively, and inhibitory ratios of PAI-1 activities in the presence of the test compound were obtained.
<Composition of the Tris Buffer (pH8.0)>

recombinant human PAI-1, sequence (P05121 24-402): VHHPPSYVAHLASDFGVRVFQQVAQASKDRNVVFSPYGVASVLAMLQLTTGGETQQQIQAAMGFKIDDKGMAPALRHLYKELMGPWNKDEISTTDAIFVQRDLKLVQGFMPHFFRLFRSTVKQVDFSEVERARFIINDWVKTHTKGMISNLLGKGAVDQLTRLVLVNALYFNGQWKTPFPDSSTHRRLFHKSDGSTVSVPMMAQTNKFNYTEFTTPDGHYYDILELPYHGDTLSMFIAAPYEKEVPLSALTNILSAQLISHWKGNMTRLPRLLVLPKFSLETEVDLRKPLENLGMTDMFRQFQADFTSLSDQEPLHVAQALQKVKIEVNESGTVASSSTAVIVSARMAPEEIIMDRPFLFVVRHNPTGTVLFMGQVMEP

SMILES | Inhibitory Ratio at 25 μM (%) (25 μM test compound) | Inhibitory Ratio at 25 μM (%) (test compound 25 μM)
CC(C)C1=NN(c2ccc(Cl)c(Cl)c2)C(=O)C1=Cc1cc(Oc2ccc(Br)cc2)ccc1[N+](=O)[O-] [Compound No. 562, 4-[2-Nitro-5-(4-bromophenoxy)benzylidene]-1-(3,4-dichlorophenyl)-3-isopropyl-2-pyrazolin-5-one] | >99 | –
COc1ccc(Oc2ccc([N+](=O)[O-])c(C=C3C(=O)N(c4ccc(Cl)c(Cl)c4)N=C3C(C)C)c2)cc1OC [Compound No. 563, 4-[2-Nitro-5-(3,4-dimethoxyphenoxy)benzylidene]-1-(3,4-dichlorophenyl)-3-isopropyl-2-pyrazolin-5-one] | 62 | –
O=C(O)c1ccc(N2N=C(c3cc(Br)ccc3O)C(=Cc3ccc(Cl)c(Cl)c3)C2=O)cc1 [Compound No. 564, 4-(3,4-Dichlorobenzylidene)-1-(4-carboxyphenyl)-3-(2-hydroxy-5-bromophenyl)-2-pyrazolin-5-one] | 96 | –
CCOC1=NN(c2ccc([N+](=O)[O-])cc2)C(=O)C1=Cc1cc(C=Cc2ccc(Oc3ccccc3)cc2)ccc1O [Compound No. 565, 4 [2-Hydroxy-5-(4-phenoxystyryl)benzylidene]-1-(4-nitrophenyl)-3-ethoxy-2-pyrazolin-5-one] | >99 | –
CC(C)C1=NN(c2ccc(Cl)c(Cl)c2)C(=O)C1=Cc1cc(C=Cc2ccc(Oc3ccccc3)cc2)ccc1O [Compound No. 566] | 76 | –
O=C1SC(=Cc2cc(Br)cc(Br)c2O)C(=O)N1c1ccccc1 [compound 1] | – | >99
O=C1SC(=Cc2cc(Br)cc(Br)c2O)C(=O)N1Cc1cc(C(F)(F)F)cc(C(F)(F)F)c1 [compound 2, 5-(3,5-Dibromo-2-hydroxybenzylidene)-3-[3,5-bis(trifluoromethyl)benzyl]-thiazolidine-2,4-dione] | – | 52
COc1cc(CN2C(=O)SC(=Cc3cccc(O)c3O)C2=O)cc(OC)c1 [compound 3, 5-(2,3-Dihydroxybenzylidene)-3-(3,5-dimethoxybenzyl)thiazolidine-2,4-dione] | – | 71
O=C1SC(=Cc2ccc(O)c(O)c2)C(=O)N1Cc1cc(C(F)(F)F)cc(C(F)(F)F)c1 [compound 4] | – | >99
Cc1cccc(C=C2SC(=O)N(Cc3cc(C(F)(F)F)cc(C(F)(F)F)c3)C2=O)c1O [compound 6] | – | 46
O=C1SC(=Cc2cccc(O)c2O)C(=O)N1Cc1ccc(Cl)c(Cl)c1 [compound 8, 5-(2,3-Dihydroxybenzylidene)-3-(3,4-dichlorobenzyl)thiazolidine-2,4-dione] | – | >99
O=C1SC(=Cc2ccc(O)c(O)c2)C(=O)N1Cc1ccc(Cl)c(Cl)c1 [compound 9] | – | >99
O=C1SC(=Cc2cccc(O)c2O)C(=O)N1Cc1cc(Cl)cc(Cl)c1 [compound 11, 5-(2,3-Dihydroxybenzylidene)-3-(3,5-dichlorobenzyl)thiazolidine-2,4-dione] | – | >99
O=C1SC(=Cc2ccc(O)c(O)c2)C(=O)N1Cc1cc(Cl)cc(Cl)c1 [compound 12] | – | >99
CC(C)(C)c1cc(CN2C(=O)SC(=Cc3cccc(O)c3O)C2=O)cc(C(C)(C)C)c1O [compound 13, 5-(2,3-Dihydroxybenzylidene)-3-[3,5-di(tert-butyl)-4-hydroxybenzyl]-thiazolidine-2,4-dione] | – | >99
CC(C)(C)c1cc(CN2C(=O)SC(=Cc3ccc(O)c(O)c3)C2=O)cc(C(C)(C)C)c1O [compound 14] | – | >99
COc1cc(OC)c(OC)cc1CN1C(=O)SC(=Cc2cccc(O)c2O)C1=O [compound 15, 5-(2,3-Dihydroxybenzylidene)-3-(2,4,5-trimethoxybenzyl)thiazolidine-2,4-dione] | – | 93
O=C1SC(=Cc2cccc(O)c2O)C(=O)N1Cc1cccc(Oc2ccccc2)c1 [compound 16, 5-(2,3-Dihydroxybenzylidene)-3-(3-phenoxybenzyl)thiazolidine-2,4-dione] | – | >99
O=C1SC(=Cc2ccc(O)c(O)c2)C(=O)N1Cc1cccc(Oc2ccccc2)c1 [compound 17] | – | >99
O=C1SC(=Cc2ccc(O)c(O)c2)C(=O)N1Cc1cccc(Cl)c1Cl [compound 19] | – | >99
O=C1SC(=Cc2cccc(O)c2O)C(=O)N1Cc1ccc(-c2ccccc2)cc1 [compound 20, 5-(2,3-Dihydroxybenzylidene)-3-(4-phenylbenzyl)thiazolidine-2,4-dione] | – | >99
O=C1SC(=Cc2ccc(O)c(O)c2)C(=O)N1Cc1ccc(-c2ccccc2)cc1 [compound 21] | – | >99
O=C1SC(=Cc2cccc(O)c2O)C(=O)N1Cc1cc(F)cc(F)c1 [compound 24, 5-(2,3-Dihydroxybenzylidene)-3-(3,5-difluorobenzyl)thiazolidine-2,4-dione] | – | >99
O=C1SC(=Cc2ccc(O)c(O)c2)C(=O)N1Cc1cc(F)cc(F)c1 [compound 25] | – | >99

Now from value to molecule:

Inhibitory Ratio at 25 μM (%) (25 μM test compound) | Inhibitory Ratio at 25 μM (%) (test compound 25 μM) | SMILES
– | >99 | Cc1cc(C)cc(CN2C(=O)SC(=Cc3cccc(O)c3O)C2=O)c1 [compound 26, 5-(2,3-Dihydroxybenzylidene)-3-(3,5-dimethylbenzyl)thiazolidine-2,4-dione]
– | >99 | Cc1cc(C)cc(CN2C(=O)SC(=Cc3ccc(O)c(O)c3)C2=O)c1 [compound 27]
– | 62 | CCOC(=O)c1cc(C=C2SC(=O)N(Cc3cc(C(F)(F)F)cc(C(F)(F)F)c3)C2=O)ccc1O [compound 28, 5-(3-Ethoxycarbonyl-4-hydroxybenzylidene)-3-[3,5-bis(trifluoromethyl)-benzyl]thiazolidine-2,4-dione]
– | 68 | O=C1SC(=Cc2ccc(O)c(O)c2O)C(=O)N1Cc1ccc(Cl)c(Cl)c1 [compound 29]
– | >99 | O=C1SC(=Cc2cccc(O)c2O)C(=O)N1Cc1cccc(Cl)c1 [compound 30, 5-(2,3-Dihydroxybenzylidene)-3-(3-chlorobenzyl)thiazolidine-2,4-dione]
– | >99 | O=C1SC(=Cc2ccc(O)c(O)c2)C(=O)N1Cc1cccc(Cl)c1 [compound 31]
– | >99 | O=C1SC(=Cc2cccc(O)c2O)C(=O)N1Cc1ccc(Cl)cc1 [compound 32, 5-(2,3-Dihydroxybenzylidene)-3-(4-chlorobenzyl)thiazolidine-2,4-dione]
– | >99 | O=C1SC(=Cc2ccc(O)c(O)c2)C(=O)N1Cc1ccc(Cl)cc1 [compound 33]
– | >99 | O=C1SC(=Cc2cccc(O)c2O)C(=O)N1Cc1cccc(Br)c1 [compound 34, 5-(2,3-Dihydroxybenzylidene)-3-(3-bromobenzyl)thiazolidine-2,4-dione]
– | >99 | O=C1SC(=Cc2ccc(O)c(O)c2)C(=O)N1Cc1cccc(Br)c1 [compound 35]
– | >99 | O=C1SC(=Cc2ccc(O)c(O)c2)C(=O)N1Cc1ccc(Br)cc1 [compound 37]
– | >99 | COc1cc(C=C2SC(=O)N(Cc3ccc(Cl)c(Cl)c3)C2=O)cc(O)c1O [compound 38]
– | >99 | O=C1SC(=Cc2cc(O)ccc2[N+](=O)[O-])C(=O)N1Cc1ccc(Cl)c(Cl)c1 [compound 39]
– | >99 | O=C1SC(=Cc2cc(O)cc(O)c2)C(=O)N1Cc1ccc(Cl)c(Cl)c1 [compound 40]
– | >99 | O=C1SC(=Cc2ccc(O)c(O)c2)C(=O)N1Cc1cccc(C(F)(F)F)c1 [compound 42]
– | >99 | O=C1SC(=Cc2ccc(O)c(O)c2)C(=O)N1Cc1ccc(C(F)(F)F)cc1 [compound 44]
– | >99 | O=C1SC(=Cc2ccc(O)cc2O)C(=O)N1Cc1ccc(Cl)c(Cl)c1 [compound 45]
– | >99 | O=C1SC(=Cc2ccc(O)c(O)c2)C(=O)N1Cc1cc(Br)cc(Br)c1 [compound 46, 5-(3,4-Dihydroxybenzylidene)-3-(3,5-dibromobenzyl)thiazolidine-2,4-dione]
– | >99 | O=C1SC(=Cc2cccc(O)c2O)C(=O)N1Cc1cc(Br)cc(Br)c1 [compound 47]
– | 67 | O=C1SC(=Cc2ccc(O)c(O)c2)C(=O)N1Cc1cccc([N+](=O)[O-])c1 [compound 48, 5-(3,4-Dihydroxybenzylidene)-3-(3-nitrobenzyl)thiazolidine-2,4-dione]
– | 93 | O=C1SC(=Cc2cccc(O)c2O)C(=O)N1Cc1cccc([N+](=O)[O-])c1 [compound 49]
– | 82 | O=C1SC(=Cc2ccc(O)c(O)c2)C(=O)N1Cc1ccc([N+](=O)[O-])cc1 [compound 50, 5-(3,4-Dihydroxybenzylidene)-3-(4-nitrobenzyl)thiazolidine-2,4-dione]
– | 86 | O=C1SC(=Cc2cccc(O)c2O)C(=O)N1Cc1ccc([N+](=O)[O-])cc1 [compound 51, 5-(2,3-dihydroxybenzylidene)-3-(4-nitrobenzyl)thiazolidine-2,4-dione]
– | 50 | O=C1SC(=Cc2cc(O)c(O)c(O)c2)C(=O)N1Cc1cccc([N+](=O)[O-])c1 [compound 52]
– | >99 | O=C1SC(=Cc2cc(O)c(O)c(O)c2)C(=O)N1Cc1cc(Cl)cc(Cl)c1 [compound 54]
– | 77 | O=C1SC(=Cc2cc([N+](=O)[O-])ccc2O)C(=O)N1Cc1ccc(Cl)c(Cl)c1 [compound 55]
